Assay results reported in ChEMBL document CHEMBL1156829 (Proc Natl Acad Sci U S A, 2008).

Key:
Plasmodium falciparum [1] = experiment: NOVARTIS: Inhibition of Plasmodium falciparum 3D7 (drug-susceptible) proliferation in erythrocyte-based infection assay; format: functional, organism-based
Plasmodium falciparum [2] = experiment: NOVARTIS: Inhibition of Plasmodium falciparum W2 (drug-resistant) proliferation in erythrocyte-based infection assay; format: functional, organism-based; conditions: read-out: EC50
[3] = NOVARTIS: Cytotoxicity against human hepatocellular carcinoma cell line (Huh7); format: toxicity, cell-based, Huh-7; conditions: Huh7 cells (hepatocellular carcinoma cell line)

Row | SMILES | EC50 (Plasmodium falciparum [1]; Plasmodium falciparum, 3D7) | EC50 (Plasmodium falciparum [2]; Plasmodium falciparum, W2) | CC50 [3] | EC50 (Plasmodium falciparum [1]) | EC50 (Plasmodium falciparum [2])
1 | CCCCCCN(C(=O)c1ccc(Cl)cc1)C(CC)c1nc2ccccc2c(=O)n1-c1ccccc1OC (stereo unspecified) | 0.952 µM | 0.607 µM | > 10 µM | – | –
2 | COc1ccc(C(Cc2ccccc2)NC2CN3CCC2CC3)cc1 (stereo unspecified) | 4.26 µM | 0.308 µM | > 65 µM | – | –
3 | O=C1C2C(C(=O)N1Cc1ccccc1)C1(c3ccccc3)C(=O)C2(c2ccccc2)C(c2ccccc2)=C1c1ccccc1 (stereo unspecified) | 0.822 µM | > 12.5 µM | > 100 µM | – | –
4 | CCCCOc1ccc(N(C(C)=O)C2=C(N3CCOCC3)C(=O)c3ccccc3C2=O)cc1 | 0.232 µM | 0.304 µM | 41 µM | – | –
5 | CCc1[nH]nc2c1C(Cc1ccccc1)C(C#N)=C(N)O2 (stereo unspecified) | > 1.25 µM | 0.393 µM | > 10 µM | – | –
6 | O=C1N(Cc2cc3ccccc3s2)CC2CN(Cc3cccc4c3OCO4)CCN12 (stereo unspecified) | 0.727 µM | < 0.000572 µM | > 10 µM | – | –
7 | CSc1nc(N)nc(SC2C=CCCC2)c1C#N (stereo unspecified) | 7.06 µM | > 12.5 µM | > 100 µM | – | –
8 | CSc1nnc(NC(=O)C2CC2)s1 | > 12.5 µM | 1.91 µM | > 100 µM | – | –
9 | CC(=O)Nc1cc([N+](=O)[O-])ccc1N1CCOCC1 | > 1.55 µM | 1.51 µM | > 10 µM | – | –
10 | CCCCCCN(C(=O)Nc1ccccc1OC)C(C)c1nc2ccccc2c(=O)n1-c1ccccc1OCC (stereo unspecified) | 0.852 µM | 0.753 µM | > 10 µM | – | –
11 | COc1ccccc1C1CC(c2ccccc2)=NN1C(=O)c1ccccc1 (stereo unspecified) | 0.262 µM | 0.11 µM | 67 µM | – | –
12 | CN(C)CCNc1cc(-c2ccccc2)nc2ccccc12 | 0.692 µM | 0.819 µM | 21.2 µM | – | –
13 | O=C(CSc1nc(NCc2ccccc2)c2ccccc2n1)NCc1ccco1 | 0.254 µM | 0.378 µM | > 10 µM | – | –
14 | CC1=CC(=O)OC[C@]23CCC(C)=C[C@H]2O[C@@H]2C[C@@H](OC(=O)C=CC=CC(=O)OCC1)[C@@]3(C)[C@]21CO1 | – | – | 0.206 µM | 0.00391 µM | 0.00918 µM
15 | CCc1nn(-c2ccccc2)c2nc(-c3cc(Br)ccc3O)c3cc(OC)c(OC)cc3c12 | 0.466 µM | 0.192 µM | > 100 µM | – | –
16 | O=C(Nc1ccc(-c2cnc(-c3ccc(NC(=O)c4cccc([N+](=O)[O-])c4)cc3)nc2)cc1)c1cccc([N+](=O)[O-])c1 | > 0.48 µM | 0.681 µM | > 10 µM | – | –
17 | CCCCCN(C(=O)c1cccc([N+](=O)[O-])c1)C(CC)c1nc2ccccc2c(=O)n1-c1ccccc1OC (stereo unspecified) | > 1.25 µM | 0.591 µM | > 10 µM | – | –
18 | CN(C)C(=O)O[n+]1ccc(N(C)C)cc1 | > 0.99 µM | > 0.897 µM | > 10 µM | – | –
19 | O=C(NCCCCNc1ccnc2cc(Cl)ccc12)C1CCCC1 | 0.409 µM | 0.485 µM | > 10 µM | – | –
20 | O=C(NC(CN1CCCC1)c1ccccc1)C1CCN(S(=O)(=O)c2ccc(Cl)cc2)CC1 (stereo unspecified) | 0.161 µM | 0.648 µM | 36.8 µM | – | –
21 | Cc1ccc(CNC(=O)CCCCCn2c(SCc3cccc([N+](=O)[O-])c3)nc3ccsc3c2=O)cc1 | 6.28 µM | 1.6 µM | > 100 µM | – | –
22 | Cc1cc(CNC(=O)CC2C(=O)NCCN2Cc2ccccc2C(F)(F)F)nn1C (stereo unspecified) | > 0.0274 µM | > 1.25 µM | > 10 µM | – | –
23 | CCN(CC)CCNC(=O)c1cc(-c2cc3ccccc3s2)cc(-n2cnnn2)c1 | 0.0616 µM | 0.151 µM | 21.3 µM | – | –
24 | Clc1ccc(-c2c[n+](Cc3ccccc3Cl)c3n2CCC3)cc1 | 0.784 µM | 0.384 µM | > 87 µM | – | –
25 | Cc1ccc(NC(=O)c2cc(C(=O)c3cc(Cl)ccc3O)cn(-c3ccc(C)cc3C)c2=O)c(C)c1 | 0.934 µM | 0.885 µM | 59 µM | – | –
26 | COc1ccc(NC(=O)COc2ccccc2C(C)C)c(OC)c1 | 7.95 µM | > 12.5 µM | > 100 µM | – | –
27 | C=C(C)C(=O)OCCc1ccc(O)c(-n2nc3ccccc3n2)c1 | > 1.25 µM | 1.01 µM | > 10 µM | – | –
